From ChEMBL document CHEMBL3779783, “Short cationic lipopeptides as effective antibacterial agents: Design, physicochemical properties and biological evaluation” (Bioorg Med Chem, 2016)
Values after ≈ are worked out from the molar mass of the structure shown. Active and inactive are the calls of the source. No cut-off for these calls is given here. Starred links: 1 amine or outer side, 2 acyl side, 3 side chain; linkers in the order of their positions; H or OH if unused. Positions of bridges follow the written chain, without caps; N, C: chain ends. Non-standard residues stand in square brackets, D forms with d. Residues, ends and D or L forms follow the SMILES beside them. ξ: configuration not given here. ξGly(decyl) = CCCCCCCCCCC(N)C(=O)O; Suc = O=C(CCC(=O)[*:2])[*:1]

Assays:
Streptococcus pneumoniae [1] = test: Antimicrobial activity against multidrug resistant Streptococcus pneumoniae ATCC 700677 after 24 hrs by M7-A7 method; assay type: functional; conditions: ATCC 700677, 24 h
Pseudomonas aeruginosa [2] = test: Antimicrobial activity against Pseudomonas aeruginosa ATCC 27853 after 24 hrs by M7-A7 method; assay type: functional; conditions: ATCC 27853, 24 h
Staphylococcus aureus [3] = test: Antimicrobial activity against glycopeptide-intermediate Staphylococcus aureus NRS17 after 24 hrs by M7-A7 method; assay type: functional; conditions: NRS17, 24 h
Klebsiella pneumoniae [4] = test: Antimicrobial activity against multidrug resistant Klebsiella pneumoniae ATCC 700603 after 24 hrs by M7-A7 method; assay type: functional; conditions: Klebsiella pneumoniae, 700603, 24 h
Staphylococcus aureus [5] = test: Antimicrobial activity against methicillin-susceptible Staphylococcus aureus ATCC 25923 assessed as membrane burst at 16 times MIC after 3 hrs by transmission electron microscopic analysis; assay type: functional, organism-based
Enterococcus faecalis [6] = test: Antimicrobial activity against clinical isolates of high level vancomycin-resistant Enterococcus faecalis after 24 hrs by M7-A7 method; assay type: functional
[7] = Metabolic stability in 0.1 M NH4HCO3 buffer at pH 8.16 assessed as trypsin (unknown origin)-mediated compound degradation after 2 to 12 hrs by RP-HPLC method; assay type: ADME; conditions: human
Acinetobacter baumannii [8] = test: Antimicrobial activity against Acinetobacter baumannii […] after 24 hrs by M7-A7 method; assay type: functional
Staphylococcus aureus [9] = test: Antimicrobial activity against clinical isolates of multi-resistant/methicillin-resistant Staphylococcus aureus after 24 hrs by M7-A7 method; assay type: functional
Enterococcus faecium [10] = test: Antimicrobial activity against multidrug resistant and high level vancomycin resistant Enterococcus faecium ATCC 51559 after 24 hrs by M7-A7 method; assay type: functional; conditions: ATCC 51559, 24 h
Escherichia coli [11] = test: Antimicrobial activity against Escherichia coli ATCC 25922 after 24 hrs by M7-A7 method; assay type: functional; conditions: ATCC 25922, 24 h
Klebsiella pneumoniae [12] = test: Antimicrobial activity against Klebsiella pneumoniae ATCC 13883 after 24 hrs by M7-A7 method; assay type: functional; conditions: ATCC 13883, 24 h
Staphylococcus aureus [13] = test: Antimicrobial activity against clinical isolates of methicillin-resistant Staphylococcus aureus after 24 hrs by M7-A7 method; assay type: functional
Staphylococcus aureus [14] = test: Antimicrobial activity against vancomycin-resistant Staphylococcus aureus NARSA VRS1 after 24 hrs by M7-A7 method; assay type: functional; conditions: NARSA VRS1, 24 h
Staphylococcus aureus [15] = test: Antimicrobial activity against vancomycin-resistant Staphylococcus aureus NARSA VRS4 after 24 hrs by M7-A7 method; assay type: functional; conditions: NARSA VRS4, 24 h
Staphylococcus aureus [16] = test: Antimicrobial activity against methicillin-resistant Staphylococcus aureus ATCC 43300 after 24 hrs by M7-A7 method; assay type: functional; conditions: ATCC 43300, 24 h
Klebsiella pneumoniae [17] = test: Antimicrobial activity against NDM-1 positive Klebsiella pneumoniae BAA-2146 after 24 hrs by M7-A7 method; assay type: functional; conditions: ATCC BAA-2146, 24 h
Staphylococcus aureus [18] = test: Antimicrobial activity against glycopeptide-intermediate Staphylococcus aureus NRS1 after 24 hrs by M7-A7 method; assay type: functional; conditions: NRS1, 24 h
Staphylococcus aureus [19] = test: Antimicrobial activity against vancomycin-resistant Staphylococcus aureus NARSA VRS10 after 24 hrs by M7-A7 method; assay type: functional; conditions: NARSA VRS10, 24 h
Klebsiella pneumoniae [20] = test: Antimicrobial activity against NDM-1 positive Klebsiella pneumoniae BAA-2146 after 20 hrs by microdilution assay; assay type: functional
Staphylococcus aureus [21] = test: Antimicrobial activity against vancomycin-resistant Staphylococcus aureus NARSA VRS4 after 20 hrs by microdilution assay; assay type: functional; conditions: NARSA VRS4, 20 h
Enterococcus faecalis [22] = test: Antimicrobial activity against clinical isolates of high level vancomycin-resistant Enterococcus faecalis after 20 hrs by microdilution assay; assay type: functional
Acinetobacter baumannii [23] = test: Antimicrobial activity against Acinetobacter baumannii […] after 20 hrs by microdilution assay; assay type: functional
[24] = Cytotoxicity against HEK293 cells after 24 hrs by MTT assay; assay type: cell-based; conditions: human
[25] = Cytotoxicity against human HepG2 cells after 24 hrs by MTT assay; assay type: cell-based
Staphylococcus aureus [26] = test: Antimicrobial activity against clinical isolates of multi-resistant/methicillin-resistant Staphylococcus aureus after 20 hrs by microdilution assay; assay type: functional
Pseudomonas aeruginosa [27] = test: Antimicrobial activity against Pseudomonas aeruginosa ATCC 27853 after 20 hrs by microdilution assay; assay type: functional
Staphylococcus aureus [28] = test: Antimicrobial activity against methicillin-resistant Staphylococcus aureus ATCC 43300 after 20 hrs by microdilution assay; assay type: functional; conditions: ATCC 43300, 20 h
Klebsiella pneumoniae [29] = test: Antimicrobial activity against multidrug resistant Klebsiella pneumoniae ATCC 700603 after 20 hrs by microdilution assay; assay type: functional
Enterococcus faecium [30] = test: Antimicrobial activity against multidrug resistant and high level vancomycin resistant Enterococcus faecium ATCC 51559 after 20 hrs by microdilution assay; assay type: functional; conditions: ATCC 51559, 20 h
Staphylococcus aureus [31] = test: Antimicrobial activity against clinical isolates of methicillin-resistant Staphylococcus aureus after 20 hrs by microdilution assay; assay type: functional
Staphylococcus aureus [32] = test: Antimicrobial activity against glycopeptide-intermediate Staphylococcus aureus NRS1 after 20 hrs by microdilution assay; assay type: functional; conditions: NRS1, 20 h
Staphylococcus aureus [33] = test: Antimicrobial activity against vancomycin-resistant Staphylococcus aureus NARSA VRS1 after 20 hrs by microdilution assay; assay type: functional; conditions: NARSA VRS1, 20 h
Staphylococcus aureus [34] = test: Antimicrobial activity against methicillin-susceptible Staphylococcus aureus ATCC 25923 after 20 hrs by microdilution assay; assay type: functional; conditions: ATCC 25923, 20 h
Staphylococcus aureus [35] = test: Antimicrobial activity against vancomycin-resistant Staphylococcus aureus NARSA VRS10 after 20 hrs by microdilution assay; assay type: functional; conditions: NARSA VRS10, 20 h
Staphylococcus aureus [36] = test: Antimicrobial activity against glycopeptide-intermediate Staphylococcus aureus NRS17 after 20 hrs by microdilution assay; assay type: functional; conditions: NRS17, 20 h
Escherichia coli [37] = test: Antimicrobial activity against Escherichia coli ATCC 25922 after 20 hrs by microdilution assay; assay type: functional
Klebsiella pneumoniae [38] = test: Antimicrobial activity against Klebsiella pneumoniae ATCC 13883 after 20 hrs by microdilution assay; assay type: functional
Streptococcus pneumoniae [39] = test: Antimicrobial activity against multidrug resistant Streptococcus pneumoniae ATCC 700677 after 20 hrs by microdilution assay; assay type: functional; conditions: ATCC 700677, 20 h
Staphylococcus aureus [40] = test: Antimicrobial activity against methicillin-susceptible Staphylococcus aureus ATCC 25923 after 24 hrs by M7-A7 method; assay type: functional; conditions: ATCC 25923, 24 h

Molecule	MIC (Streptococcus pneumoniae [1]) [µM]	MIC (Pseudomonas aeruginosa [2]) [µM]	MIC (Staphylococcus aureus [3]) [µM]	MIC (Klebsiella pneumoniae [4]) [µM]	MIC (Enterococcus faecalis [6]) [µM]	MIC (Acinetobacter baumannii [8]) [µM]	MIC (Staphylococcus aureus [9]) [µM]	MIC (Enterococcus faecium [10]) [µM]	MIC (Escherichia coli [11]) [µM]	MIC (Klebsiella pneumoniae [12]) [µM]	MIC (Staphylococcus aureus [13]) [µM]	MIC (Staphylococcus aureus [14]) [µM]	MIC (Staphylococcus aureus [15]) [µM]	MIC (Staphylococcus aureus [16]) [µM]	MIC (Klebsiella pneumoniae [17]) [µM]	MIC (Staphylococcus aureus [18]) [µM]	MIC (Staphylococcus aureus [19]) [µM]	MIC (Acinetobacter baumannii [23]) [µM]	other results
CCCCCCCCCCC(NC(=O)C(CCCCCCCCCC)NC(=O)C(CCCCN)NC(=O)C(CCCCN)NC(C)=O)C(=O)NC(CCCCNC(C)=O)C(=O)NCC(N)=O (stereo not drawn) (Ac-KK[ξGly(decyl)][ξGly(decyl)]K(Ac)G-NH2; configuration not given here)	3.8 (≈ 3.56 µg/mL)	7.5 (≈ 7.03 µg/mL)	2.8 (≈ 2.62 µg/mL)	> 15	1.9 (≈ 1.78 µg/mL)	7.5 (≈ 7.03 µg/mL)	3.8 (≈ 3.56 µg/mL)	2.8 (≈ 2.62 µg/mL)	15 (≈ 14.1 µg/mL)	15 (≈ 14.1 µg/mL)	11.3 (≈ 10.6 µg/mL)	1.9 (≈ 1.78 µg/mL)	2.8 (≈ 2.62 µg/mL)	1.9 (≈ 1.78 µg/mL)	> 15	1.9 (≈ 1.78 µg/mL)	2.8 (≈ 2.62 µg/mL)	–	Activity (Staphylococcus aureus [5]): Active; Stability [7]: Stable
CCCCCCCCCCC(NC(=O)C(CCCCCCCCCC)NC(=O)C(CCCCNC(=O)C(N)CCCCN)NC(=O)C(N)CCCCN)C(N)=O (stereo not drawn) (H-KK(Lys)[ξGly(decyl)][ξGly(decyl)]-NH2; configuration not given here)	–	–	–	–	–	–	–	–	–	–	–	–	–	–	–	–	–	> 30	MIC (Klebsiella pneumoniae [20]; ATCC BAA-2146, 20 h): > 30 µM; MIC (Staphylococcus aureus [21]): 0.2 µM (≈ 0.159 µg/mL); MIC (Enterococcus faecalis [22]): 0.2 µM (≈ 0.159 µg/mL); CC50 at 24 h [24]: > 15 µM; CC50 at 24 h [25]: ≥ 15 µM; MIC (Staphylococcus aureus [26]): 0.1 µM (≈ 0.0796 µg/mL); MIC (Pseudomonas aeruginosa [27]; ATCC 27853, 20 h): 30 µM (≈ 23.9 µg/mL); MIC (Staphylococcus aureus [28]): 0.1 µM (≈ 0.0796 µg/mL); MIC (Klebsiella pneumoniae [29]; Klebsiella pneumoniae, 700603, 20 h): > 30 µM; MIC (Enterococcus faecium [30]): 0.2 µM (≈ 0.159 µg/mL); MIC (Staphylococcus aureus [31]): 0.1 µM (≈ 0.0796 µg/mL); MIC (Staphylococcus aureus [32]): 0.1 µM (≈ 0.0796 µg/mL); MIC (Staphylococcus aureus [33]): 0.1 µM (≈ 0.0796 µg/mL); MIC (Staphylococcus aureus [34]): 0.06 µM (≈ 0.0478 µg/mL); MIC (Staphylococcus aureus [35]): 0.1 µM (≈ 0.0796 µg/mL); MIC (Staphylococcus aureus [36]): 0.1 µM (≈ 0.0796 µg/mL); MIC (Escherichia coli [37]; ATCC 25922, 20 h): 30 µM (≈ 23.9 µg/mL); MIC (Klebsiella pneumoniae [38]; ATCC 13883, 20 h): > 30 µM; MIC (Streptococcus pneumoniae [39]): 0.2 µM (≈ 0.159 µg/mL)
CCCCCCCCCCC1NC(=O)C(CCCCCCCCCC)NC(=O)C(CCCCN)NC(=O)C(CCCCN)NC(=O)CCC(=O)NCCCCC(C(=O)NCC(N)=O)NC1=O (stereo not drawn) (KK[ξGly(decyl)][ξGly(decyl)]KG-NH2; linker N-5 via Suc; configuration not given here)	0.9 (≈ 0.842 µg/mL)	30 (≈ 28.1 µg/mL)	0.9 (≈ 0.842 µg/mL)	> 30	0.2 (≈ 0.187 µg/mL)	15 (≈ 14 µg/mL)	1.9 (≈ 1.78 µg/mL)	0.3 (≈ 0.281 µg/mL)	≥ 30	> 30	1.4 (≈ 1.31 µg/mL)	0.7 (≈ 0.655 µg/mL)	0.5 (≈ 0.468 µg/mL)	0.5 (≈ 0.468 µg/mL)	> 30	1.2 (≈ 1.12 µg/mL)	0.9 (≈ 0.842 µg/mL)	–	MIC (Staphylococcus aureus [40]): 0.5 µM (≈ 0.468 µg/mL)
COLISTIN	–	–	–	–	–	–	–	–	–	–	–	–	–	–	–	–	–	0.04	MIC (Klebsiella pneumoniae [20]; ATCC BAA-2146): 0.04 µM; MIC (Pseudomonas aeruginosa [27]): 0.09 µM; MIC (Klebsiella pneumoniae [29]): 0.04 µM; MIC (Escherichia coli [37]): 0.02 µM; MIC (Klebsiella pneumoniae [38]): 0.04 µM
